≈ marks a conversion by molar mass, not a printed value. Calls of active or inactive are those of the source. The calls are words filed in the database; no cut-off is given here.
Experiments:
[1] = system: Saccharomyces cerevisiae; assay: Compound was evaluated for inhibitory activity against Saccharomyces cerevisiae; IA = Inactive; format: functional, organism-based
[2] = system: Candida albicans; assay: Compound was evaluated for inhibitory activity against Candida albicans; IA= Inactive; format: functional, organism-based
[3] = system: Saccharomyces cerevisiae; assay: Compound was evaluated for inhibitory activity against Saccharomyces cerevisiae; 2-3.2; format: functional
[4] = system: Candida albicans; assay: Compound was evaluated for inhibitory activity against Candida albicans; 2-3.2; format: functional
[5] = system: Candida albicans; assay: Compound was evaluated for inhibitory activity against Candida albicans; 4-6.4; format: functional
[6] = system: Saccharomyces cerevisiae; assay: Compound was evaluated for inhibitory activity against Saccharomyces cerevisiae; 4-6.4; format: functional
[7] = system: Saccharomyces cerevisiae; assay: Compound was evaluated for inhibitory activity against Saccharomyces cerevisiae; format: functional
[8] = system: Candida albicans; assay: Compound was evaluated for inhibitory activity against Candida albicans; format: functional
[9] = system: Saccharomyces cerevisiae; assay: Compound was evaluated for inhibitory activity against Saccharomyces cerevisiae; IA= Inactive; format: functional, organism-based
[10] = system: Candida albicans; assay: microbe, parasite or virus in culture
[11] = system: Saccharomyces cerevisiae; assay: microbe, parasite or virus in culture
[12] = system: Candida albicans; assay: Compound was evaluated for inhibitory activity against Candida albicans; 3.2-4; format: functional
[13] = system: Saccharomyces cerevisiae; assay: Compound was evaluated for inhibitory activity against Saccharomyces cerevisiae; 3.2-4; format: functional

In the case of Cc1c(Cc2c(C)n(C)n(-c3ccccc3)c2=O)c(=O)n(-c2ccccc2)n1C, the MIC [1] is reported as “inactive” and the MIC [2] is reported as “inactive”.

For O=c1sc2sc(=O)sc2s1, the MIC [3] was 2 µg/mL (≈ 9.6 µM) and the MIC [4] was 2 µg/mL (≈ 9.6 µM).

For BrC1[C@H]2C[C@@H]3C[C@@H](C[C@H]1C3)C2 (some centres undefined), the MIC [5] was 4 µg/mL (≈ 18.6 µM) and the MIC [6] was 4 µg/mL (≈ 18.6 µM).

For [Cl-].[Cl-].c1ccc(-c2nn(-c3ccccc3)[n+](-c3ccc(-c4ccc(-[n+]5nc(-c6ccccc6)nn5-c5ccccc5)cc4)cc3)n2)cc1 [NEOTETRAZOLIUM CHLORIDE], the MIC [7] was less than 1.6 µg/mL and the MIC [8] was less than 1.6 µg/mL.

In the case of Brc1sc(Br)c(Br)c1Br, the MIC [2] is reported as “inactive” and the MIC [9] is reported as “inactive”.

BrCCc1c[nH]c2ccccc12 gave an MIC [3] of 2 µg/mL (≈ 8.92 µM) and an MIC [4] of 2 µg/mL (≈ 8.92 µM).

Oc1c(I)cc(I)c2cccnc12 was tested, and the MIC [1] was “inactive” and the MIC [2] was “inactive”.

In the case of Clc1ccc(COC(Cn2ccnc2)c2ccc(Cl)cc2Cl)c(Cl)c1 (centres undefined) [MICONAZOLE], the MIC [10] is reported as 1.6 µg/mL (≈ 3.84 µM), the MIC [11] is reported as 1.6 µg/mL (≈ 3.84 µM) and the MIC [7] is reported as less than 1.6 µg/mL. It also gave an MIC [8] of less than 1.6 µg/mL.

For O=C(Nc1ccccc1)c1ccccc1O [SALICYLANILIDE], the MIC [3] was 2 µg/mL (≈ 9.38 µM) and the MIC [4] was 2 µg/mL (≈ 9.38 µM).

Work on CCC(=O)O [PROPIONIC ACID] yielded an MIC [12] of 3.2 µg/mL (≈ 43.2 µM) and an MIC [13] of 3.2 µg/mL (≈ 43.2 µM).

For CC1(CBr)C2CCC1(CBr)C(=O)C2 (centres undefined), the MIC [2] was “inactive” and the MIC [9] was “inactive”.

Reference: ChEMBL document CHEMBL1130585, “New antifungals selected by molecular topology” (1998)
